The Ki is the dissociation constant of the complex between target and ligand, obtained from inhibition or displacement. Low readings indicate a stronger hold on the target, high ones a looser hold on the target.

Drawing on BindingDB's records for doi:10.7270/Q2NZ862K (Nmmlsc, 2007), this text covers Ki for 22 compounds.

In the experiment the target is T1, fMet-Leu-Phe receptor (Homo sapiens, UniProt P21462).
T1 sequence (P21462 whole entry): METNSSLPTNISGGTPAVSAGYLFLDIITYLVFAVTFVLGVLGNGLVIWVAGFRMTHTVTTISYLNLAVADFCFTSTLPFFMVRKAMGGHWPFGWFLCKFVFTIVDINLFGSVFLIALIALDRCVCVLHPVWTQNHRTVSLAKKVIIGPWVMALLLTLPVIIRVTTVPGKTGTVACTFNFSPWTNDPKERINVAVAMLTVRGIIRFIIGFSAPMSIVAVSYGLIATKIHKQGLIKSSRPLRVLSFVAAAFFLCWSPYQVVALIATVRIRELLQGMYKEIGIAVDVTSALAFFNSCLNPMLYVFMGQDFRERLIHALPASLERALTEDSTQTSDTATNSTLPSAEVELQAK
Kind of experiment: formyl peptide receptor binders – dose response (AID 519).

With `C=C(c1ccc(Br)cc1)c1sc(N2CCCC2)nc1O` [(5Z)-5-[1-(4-bromophenyl)ethylidene]-2-(1-pyrrolidinyl)-4-thiazolone], the Ki was more than 43.7 µM. `COCCCN1C(=O)C(=O)C(C(=O)c2ccco2)C1c1ccc(Br)cc1` (configuration not stated) [2-(4-bromophenyl)-3-(furan-2-carbonyl)-4-hydroxy-1-(3-methoxypropyl)-2H-pyrrol-5-one] displayed an inhibition constant Ki of 9.6 µM.

`CCOc1cccc(C(=O)C2C(=O)C(=O)N(Cc3ccco3)C2c2ccncc2)c1` (configuration not stated) [(4Z)-1-(2-furfuryl)-4-[hydroxy(m-phenetyl)methylene]-5-(4-pyridyl)pyrrolidine-2,3-quinone] registered a Ki of more than 43.7 µM. The same measure for `Cc1ccc(C2C(C(=O)c3ccc(Br)cc3)C(=O)C(=O)N2Cc2ccco2)o1` (configuration not stated) [(4Z)-4-[(4-bromophenyl)-hydroxy-methylene]-1-(2-furfuryl)-5-(5-methyl-2-furyl)pyrrolidine-2,3-quinone]: more than 43.7 µM. In turn, `Cc1cc(N2C(=O)C(=O)C(C(=O)c3ccc(F)cc3)C2c2cccc(Br)c2)no1` (configuration not stated) [(4E)-5-(3-bromophenyl)-4-[(4-fluorophenyl)-hydroxy-methylene]-1-(5-methylisoxazol-3-yl)pyrrolidine-2,3-quinone] showed a Ki of more than 43.7 µM. For the compound `COc1cccc2cc(C(=O)C3C(=O)C(=O)N(Cc4ccco4)C3c3cccnc3)oc12` (configuration not stated) [1-(2-furanylmethyl)-4-hydroxy-3-[(7-methoxy-2-benzofuranyl)-oxomethyl]-2-(3-pyridinyl)-2H-pyrrol-5-one], the inhibition constant Ki was more than 43.7 µM. To `O=C1C(=O)N(Cc2ccccc2)C(c2ccco2)C1C(=O)c1ccco1` (configuration not stated) [1-Benzyl-4-(furan-2-carbonyl)-5-furan-2-yl-3-hydroxy-1,5-dihydro-pyrrol-2-one] belongs 8.1 µM; to `COc1ccc(C2C(C(=O)c3cccs3)C(=O)C(=O)N2c2nnc(C)s2)cc1OC` (configuration not stated) [2-(3,4-dimethoxyphenyl)-1-(5-methyl-1,3,4-thiadiazol-2-yl)-4-oxidanyl-3-thiophen-2-ylcarbonyl-2H-pyrrol-5-one], more than 43.7 µM; to `CCOc1ccc(C(=O)C2C(=O)C(=O)N(CC3CCCO3)C2c2ccc(C)o2)cc1` (configuration not stated) [(4Z)-4-[(4-ethoxyphenyl)-hydroxymethylidene]-5-(5-methyl-2-furanyl)-1-(2-oxolanylmethyl)pyrrolidine-2,3-dione], 13.8 µM. The same measure for `Cc1cc(N2C(=O)C(=O)C(C(=O)c3ccco3)C2c2cccnc2)no1` (configuration not stated) [3-(furan-2-carbonyl)-4-hydroxy-1-(5-methyl-1,2-oxazol-3-yl)-2-pyridin-3-yl-2H-pyrrol-5-one]: more than 43.7 µM; for `C=CCOc1ccc(C2C(C(=O)c3cccs3)C(=O)C(=O)N2c2nnc(C)s2)cc1` (configuration not stated) [1-(5-methyl-1,3,4-thiadiazol-2-yl)-4-oxidanyl-2-(4-prop-2-enoxyphenyl)-3-thiophen-2-ylcarbonyl-2H-pyrrol-5-one]: 26.5 µM; for `COC(=O)c1[nH]c(C)c(C(=O)C2C(=O)C(=O)N(CCN3CCOCC3)C2c2cccnc2)c1C` (configuration not stated) [4-[(E)-hydroxy-[1-[2-(4-morpholinyl)ethyl]-4,5-dioxo-2-(3-pyridinyl)-3-pyrrolidinylidene]methyl]-3,5-dimethyl-1H-pyrrole-2-carboxylic acid methyl ester]: 13.6 µM. As for `COc1ccc(C(=O)C2C(=O)C(=O)N(CCN3CCOCC3)C2c2ccc(C)cc2)cc1` (configuration not stated) [(4Z)-4-[(4-methoxyphenyl)-oxidanyl-methylidene]-5-(4-methylphenyl)-1-(2-morpholin-4-ylethyl)pyrrolidine-2,3-dione], the inhibitory constant (Ki) is more than 43.7 µM. To `O=C1CCCC(=O)C1C(C#Cc1ccccc1)C1C(=O)CCCC1=O` [3-hydroxy-2-[1-(2-hydroxy-6-keto-cyclohexen-1-yl)-3-phenyl-prop-2-ynyl]cyclohex-2-en-1-one] belongs more than 43.7 µM; to `O=C1C(=O)N(c2ncccn2)C(c2cccc(Cl)c2)C1C(=O)c1ccco1` (configuration not stated) [2-(3-chlorophenyl)-3-(furan-2-carbonyl)-4-hydroxy-1-pyrimidin-2-yl-2H-pyrrol-5-one], more than 43.7 µM. The same measure for `COCCCN1C(=O)C(=O)C(C(=O)c2ccco2)C1c1cccc(Br)c1` (configuration not stated) [2-(3-bromophenyl)-3-(furan-2-carbonyl)-4-hydroxy-1-(3-methoxypropyl)-2H-pyrrol-5-one]: 20.4 µM; for `Cc1ccc(C(=O)C2C(=O)C(=O)N(c3cc(C)on3)C2c2cccc(Br)c2)cc1` (configuration not stated) [(4E)-5-(3-bromophenyl)-1-(5-methyl-1,2-oxazol-3-yl)-4-[(4-methylphenyl)-oxidanyl-methylidene]pyrrolidine-2,3-dione]: more than 43.7 µM. The same measure for `CC1=C(C(=O)OC(C)C)[C@]2(C(=O)N(CC(N)=O)c3ccccc32)C(C#N)C(=N)O1` (stereo partly drawn) [(3R)-6'-amino-1-(2-amino-2-keto-ethyl)-5'-cyano-2-keto-2'-methyl-spiro[indoline-3,4'-pyran]-3'-carboxylic acid isopropyl ester]: more than 43.7 µM. Turning to `Cc1ccc(C(=O)C2C(=O)C(=O)N(CCN3CCOCC3)C2c2cccnc2)cc1` (configuration not stated) [(4Z)-4-[(4-methylphenyl)-oxidanyl-methylidene]-1-(2-morpholin-4-ylethyl)-5-pyridin-3-yl-pyrrolidine-2,3-dione], the Ki is more than 43.7 µM. The same measure for `COc1cccc(C2C(C(=O)c3cc4ccccc4o3)C(=O)C(=O)N2c2cc(C)on2)c1OC` (configuration not stated) [3-(1-benzofuran-2-carbonyl)-2-(2,3-dimethoxyphenyl)-4-hydroxy-1-(5-methyl-1,2-oxazol-3-yl)-2H-pyrrol-5-one]: more than 43.7 µM. To `CCOc1ccc(C(=O)C2C(=O)C(=O)N(c3nc(C)c(C)s3)C2c2ccco2)cc1` (configuration not stated) [(4Z)-1-(4,5-dimethyl-1,3-thiazol-2-yl)-4-[(4-ethoxyphenyl)-hydroxymethylidene]-5-(furan-2-yl)pyrrolidine-2,3-dione] belongs 37.8 µM; to `COc1cc(C2C(C(=O)c3ccco3)C(=O)C(=O)N2c2cc(C)on2)cc(Br)c1O` (configuration not stated) [2-(3-bromanyl-5-methoxy-4-oxidanyl-phenyl)-3-(furan-2-ylcarbonyl)-1-(5-methyl-1,2-oxazol-3-yl)-4-oxidanyl-2H-pyrrol-5-one], 31.2 µM.
